Experiments:
B16 [1] = test: Concentration which produces 50% inhibition of growth of murine melanoma B16 cell line; assay type: functional, cell-based; settings: Mus musculus
MCF7 [2] = test: Concentration which produces 50% inhibition of growth of human breast tumor MCF-7 cell line; assay type: functional, cell-based
PC-3 [3] = test: Concentration which produces 50% inhibition of growth of prostate tumor cell line PC-3; assay type: functional, cell-based; settings: Homo sapiens
HCT-116 [4] = test: Concentration which produces 50% inhibition of growth of human colon tumor HCT 116; assay type: functional, cell-based
A549 [5] = test: Concentration which produces 50% inhibition of growth of human lung carcinoma cell line A549; assay type: functional, cell-based
MCF7 [6] = test: Compound was tested for inhibition of growth of human breast tumor MCF-7 cell line up to a conc of 10 uM; NI means no inhibition; assay type: functional, cell-based
HCT-116 [7] = test: Compound was tested for inhibition of growth of human colon tumor HCT116 up to a conc of 10 uM; NI means no inhibition; assay type: functional, cell-based
PC-3 [8] = test: Compound was tested for inhibition of growth of prostate tumor cell line PC-3 up to a conc of 10 uM; NI means no inhibition; assay type: functional, cell-based, Homo sapiens
A549 [9] = test: Compound was tested for inhibition of growth of human lung carcinoma cell line A549 up to a conc of 10 uM; NI means no inhibition; assay type: functional, cell-based
B16 [10] = test: In vivo antitumor activity against BDF1 mice bearing B16 murine melanoma cells at a dose of 10 mg/kg/day; assay type: functional, Mus musculus
B16 [11] = test: In vivo antitumor activity against BDF1 mice bearing B16 murine melanoma cells at a dose of 30 mg/kg/day; assay type: functional, Mus musculus
B16 [12] = test: In vivo antitumor activity against BDF1 mice bearing B16 murine melanoma cells at a dose of 100 mg/kg/day; assay type: functional, Mus musculus
B16 [13] = test: In vivo antitumor activity against BDF1 mice bearing B16 murine melanoma cells at a dose of 3 mg/kg/day; assay type: functional, Mus musculus

COc1ccc(-c2coc(=O)n2-c2cc(OC)c(OC)c(OC)c2)cc1O
IC50 (B16 [1]): 0.9 nM | IC50 (MCF7 [2]): 2.9 nM | IC50 (PC-3 [3]): 2.3 nM | IC50 (HCT-116 [4]): 1.7 nM | IC50 (A549 [5]): 3.1 nM

COc1cc(-c2nc(O)oc2-c2ccc3ccccc3c2)cc(OC)c1OC
IC50 (B16 [1]): 7.4 nM | IC50 (MCF7 [2]): 16.7 nM | IC50 (PC-3 [3]): 7.1 nM | IC50 (HCT-116 [4]): 11.2 nM | IC50 (A549 [5]): 10.8 nM

COc1ccc(-n2c(-c3cc(OC)c(OC)c(OC)c3)coc2=O)cc1
IC50 (B16 [1]): 1880 nM | IC50 (MCF7 [6]): Not Active | IC50 (HCT-116 [7]): Not Active | IC50 (PC-3 [8]): Not Active | IC50 (A549 [9]): Not Active

COc1ccc(-c2coc(=O)n2-c2cc(OC)c(OC)c(OC)c2)cc1N
IC50 (B16 [1]): 1.1 nM | Inhibition rate (B16 [10]): 34% | IC50 (MCF7 [2]): 1.8 nM | IC50 (PC-3 [3]): 2.5 nM | IC50 (HCT-116 [4]): 3.2 nM | IC50 (A549 [5]): 4.3 nM | Inhibition rate (B16 [11]): 61% | Inhibition rate (B16 [12]): 67%

COc1cc(-n2c(-c3ccc4c(c3)OCO4)coc2=O)cc(OC)c1OC
IC50 (B16 [1]): 45 nM | IC50 (MCF7 [2]): 39.7 nM | IC50 (PC-3 [3]): 70.6 nM | IC50 (HCT-116 [4]): 57.4 nM | IC50 (A549 [5]): 64.5 nM

COc1ccc(-c2oc(O)nc2-c2cc(OC)c(OC)c(OC)c2)cc1
IC50 (B16 [1]): 14.5 nM | IC50 (MCF7 [2]): 28.4 nM | IC50 (PC-3 [3]): 20.1 nM | IC50 (HCT-116 [4]): 21.7 nM | IC50 (A549 [5]): 16.9 nM

COc1cc(-c2nc(O)oc2-c2ccc3c(c2)OCO3)cc(OC)c1OC
IC50 (B16 [1]): 89.3 nM | IC50 (MCF7 [2]): 78.5 nM | IC50 (PC-3 [3]): 112 nM | IC50 (HCT-116 [4]): 101 nM | IC50 (A549 [5]): 63.1 nM

COc1ccc(-c2oc(O)nc2-c2cc(OC)c(OC)c(OC)c2)cc1N
IC50 (B16 [1]): 2.4 nM | IC50 (MCF7 [2]): 4.9 nM | IC50 (PC-3 [3]): 2.1 nM | IC50 (HCT-116 [4]): 3.7 nM | IC50 (A549 [5]): 3.8 nM

COc1ccc(-c2coc(=O)n2-c2cc(OC)c(OC)c(OC)c2)cc1
IC50 (B16 [1]): 7.9 nM | IC50 (MCF7 [2]): 10.5 nM | IC50 (PC-3 [3]): 7.5 nM | IC50 (HCT-116 [4]): 11 nM | IC50 (A549 [5]): 19.9 nM

COc1ccc(-c2nc(O)oc2-c2cc(OC)c(OC)c(OC)c2)cc1
IC50 (B16 [1]): 1390 nM | IC50 (MCF7 [6]): Not Active | IC50 (HCT-116 [7]): Not Active | IC50 (PC-3 [8]): Not Active | IC50 (A549 [9]): Not Active

COc1ccc(-c2oc(O)nc2-c2cc(OC)c(OC)c(OC)c2)cc1O
IC50 (B16 [1]): 5.4 nM | IC50 (MCF7 [2]): 5.7 nM | IC50 (PC-3 [3]): 6.4 nM | IC50 (HCT-116 [4]): 6.1 nM | IC50 (A549 [5]): 7.9 nM

COc1cc(-n2c(-c3ccc4ccccc4c3)coc2=O)cc(OC)c1OC
IC50 (B16 [1]): 5.8 nM | IC50 (MCF7 [2]): 3.7 nM | IC50 (PC-3 [3]): 3.1 nM | IC50 (HCT-116 [4]): 4.9 nM | IC50 (A549 [5]): 5.9 nM

COc1ccc(/C=C\c2cc(OC)c(OC)c(OC)c2)cc1O [COMBRETASTATIN A4]
IC50 (B16 [1]): 1 nM | IC50 (MCF7 [2]): 2.7 nM | IC50 (PC-3 [3]): 2.7 nM | IC50 (HCT-116 [4]): 0.9 nM | IC50 (A549 [5]): 2.1 nM

COc1cccc2c1C(=O)c1c(O)c3c(c(O)c1C2=O)C[C@@](O)(C(=O)CO)C[C@@H]3O[C@H]1C[C@H](N)[C@H](O)[C@H](C)O1 [DOXORUBICIN]
Inhibition rate (B16 [13]): 55%

— ChEMBL document CHEMBL1134428, “Combretoxazolones: synthesis, cytotoxicity and antitumor activity” (Bioorg Med Chem Lett, 2001)
